Structures can show the parent of a compound that is named as a salt.

One experiment deals with hSERT Y95F (Homo sapiens, UniProt P31645, Y95F).
Assay: not given
Conditions: not given
Turning to `NCCc1c[nH]c2ccc(O)cc12` [5HT, 5-hydroxytryptamine], the recognition entry was “appeared normal”.

For the next experiment, the target named is hSERT WT (Homo sapiens, UniProt P31645). Kind of experiment: cell-based. It counts as cell-based.
Conditions: not given
`NCCc1c[nH]c2c(O)c(O)c(O)cc12` [5,6,7 trihydroxytryptamine] registered an EC50 of 14.3 µM.
With `NCCc1c[nH]c2c(O)cccc12` [7-hydroxytryptamine], the midpoint of the response, the EC50, lay at 1.4 µM.
For `OC1(c2ccc(Cl)cc2)c2ccccc2C2=NCCN21` (stereo not drawn) [Mazindol], the 50% effective concentration (EC50) came to 2.9 µM.
Same read-out and setting: the result for `CNCCC(Oc1ccccc1OC)c1ccccc1` (stereo not drawn) [Nisoxetine] reads 1.36 µM; that for `NCCc1c[nH]c2ccccc12` [Tryptamine], 0.2 µM.

The same experiment, now with this note: read-out: EC50(μM) WT.
Take `CC(N)Cc1c[nH]c2ccc(O)cc12` (stereo not drawn) [Alpha-methylserotonin maleate]: the EC50 is 2.2 µM.
Turning to `CNC(C)Cc1ccc2c(c1)OCO2` (stereo not drawn) [MDMA], the EC50 was found to be 0.7 µM.
Same read-out and setting: the result for `COC(=O)[C@H]1C(c2ccc(I)cc2)C[C@@H]2CC[C@H]1N2C` (stereo partly drawn) [RTI-55] reads 0.0007 µM.
